Laboratory results as given in patent publication US4436751A, “Nitrobenzyl monates antibacterial compounds” (Beecham Group Limited, priority 1980, dated 1984).
Values after ≈ are worked out from the molar mass of the structure shown. Like-named read-outs stand apart in the source and are kept apart here.

Legend:
Assay type in all cases: cell-based
M. gallisepticum S6 = experiment: Anti-mycoplasmal MIC in vitro, Friis broth agarose (Table 1); details: Mycoplasmoides gallisepticum, S6, 144 h
M. suipneumoniae MS 16 = experiment: as above; details: Mesomycoplasma hyopneumoniae, MS16, 144 h
M. suipneumoniae NB12 = experiment: as above; details: Mesomycoplasma hyopneumoniae, NB12, 144 h
P. mirabilis 889 = experiment: Human bacteria MIC, nutrient agar with chocolated horse blood (Table 3)
Protocol: (§1) The values were determined by serial dilutions in nutrient agar with 5% chocolated horse blood after incubations for 18 hours at 37° C.

Staph. aureus Oxford = experiment: as above; details: Staphylococcus aureus
Protocol: as §1

Strep. faecalis 1 = experiment: as above
Protocol: as §1

[1] = test system: Strep. pyogenes R80/421-A; experiment: as above; details: Streptococcus pyogenes
Protocol: as §1

[2] = test system: Ps. aeruginosa NCTC 10662; experiment: as above; details: Pseudomonas aeruginosa
Protocol: as §1

Sarcina lutea 8340 = experiment: as above
Protocol: as §1

[3] = test system: Corynebacterium xerosis 9755; experiment: as above
Protocol: as §1

Staph. aureus W2827 = experiment: as above; details: Staphylococcus aureus, W2827, 18 h
Protocol: as §1

[4] = test system: Haemophilus influenzae Q1; experiment: as above
Protocol: as §1

E. Coli NCTC 10418 = experiment: as above; details: Escherichia coli
Protocol: as §1

Bacillus subtilis 6633 = experiment: as above
Protocol: as §1

K. aerogenes A = experiment: as above; details: Klebsiella aerogenes
Protocol: as §1

[5] = test system: Pasteurella multocida 1633; experiment: as above
Protocol: as §1

Staph. aureus Russell = experiment: as above; details: Staphylococcus aureus
Protocol: as §1

[6] = test system: M. hyosynoviae ATOC 25591; experiment: Anti-mycoplasmal MIC in vitro, Friis broth agarose (Table 1); details: 144 h
M. hyorhinis ATCC 25021 = experiment: as above; details: Mesomycoplasma hyorhinis, ATCC25021, 144 h
M. suipneumoniae LABER = experiment: as above; details: Mesomycoplasma hyopneumoniae, 144 h
M. suipneumoniae TAM 6N = experiment: as above; details: Mesomycoplasma hyopneumoniae, TAM6N, 144 h
[7] = test system: M. suipneumoniae ATCC 25095; experiment: as above; details: Mesomycoplasma hyopneumoniae, ATCC25095, 144 h
[8] = test system: Erysipelothrix rhusiopathiae NCTC 8163; experiment: Veterinary bacteria MIC, Diagnostic Sensitivity Test Agar (Table 2)
Protocol: (§2) The values were determined using a two fold serial dilutions in Diagnostic Sensitivity Test Agar with an inoculum of 10^4 organisms and incubation for 18 hours at 37° C.

Past. multocida PA1 = experiment: as above; details: Pasteurella multocida
Protocol: as §2

Past. multocida PA2 = experiment: as above; details: Pasteurella multocida
Protocol: as §2

Strep. uberis SPO1 = experiment: as above; details: Streptococcus uberis
Protocol: as §2

[9] = test system: Strep. suis (group D) SPS11; experiment: as above; details: Streptococcus suis
Protocol: as §2

**Q.** Which MIC (M. gallisepticum S6) does the source give for `C/C(=C\C(=O)OCc1cccc([N+](=O)[O-])c1)CC1OCC(C/C=C/C(C)C(C)O)C(O)C1O` (stereo not drawn) [Example 5, m-nitrobenzyl monate C] here?
**A.** The MIC was 5 µg/mL (≈ 10.8 µM).

**Q.** What about the MIC (M. suipneumoniae MS 16) of the same molecule?
**A.** Its MIC is 0.1 µg/mL (≈ 0.216 µM).

**Q.** What about the MIC (M. suipneumoniae NB12) of the same molecule?
**A.** Its MIC is 0.25 µg/mL (≈ 0.539 µM).

**Q.** And the MIC (P. mirabilis 889; Proteus mirabilis, P. mirabilis 889, nutrient agar 5% chocolated horse blood, 18 hours 37° C., read-out: MIC)?
**A.** Its MIC is over 100 µg/mL.

**Q.** And the MIC (Staph. aureus Oxford; Staph. aureus Oxford, nutrient agar 5% chocolated horse blood, 18 hours 37° C., read-out: MIC)?
**A.** The MIC was 2.5 µg/mL (≈ 5.39 µM).

**Q.** And the MIC (Strep. faecalis 1; Enterococcus faecalis, Strep. faecalis 1, nutrient agar 5% chocolated horse blood, 18 hours 37° C., read-out: MIC)?
**A.** Its MIC is over 100 µg/mL.

**Q.** What about the MIC ([1]; Strep. pyogenes R80/421-A, nutrient agar 5% chocolated horse blood, 18 hours 37° C., read-out: MIC) of the same molecule?
**A.** Its MIC is 1 µg/mL (≈ 2.16 µM).

**Q.** What about the MIC ([2]; NCTC10662, Ps. aeruginosa NCTC 10662, nutrient agar 5% chocolated horse blood, 18 hours 37° C., read-out: MIC) of the same molecule?
**A.** The MIC was over 100 µg/mL.

**Q.** And the MIC (Sarcina lutea 8340; Micrococcus luteus, Sarcina lutea 8340, nutrient agar 5% chocolated horse blood, 18 hours 37° C., read-out: MIC)?
**A.** Its MIC is over 100 µg/mL.

**Q.** And the MIC ([3]; Corynebacterium xerosis 9755, nutrient agar 5% chocolated horse blood, 18 hours 37° C., read-out: MIC)?
**A.** The MIC was over 100 µg/mL.

**Q.** What about the MIC (Staph. aureus W2827) of the same molecule?
**A.** Its MIC is 5 µg/mL (≈ 10.8 µM).

**Q.** And the MIC ([4]; Haemophilus influenzae Q1, nutrient agar 5% chocolated horse blood, 18 hours 37° C., read-out: MIC)?
**A.** Its MIC is 1 µg/mL (≈ 2.16 µM).

**Q.** And the MIC (E. Coli NCTC 10418; NCTC10418, E. coli NCTC 10418, nutrient agar 5% chocolated horse blood, 18 hours 37° C., read-out: MIC)?
**A.** Its MIC is over 100 µg/mL.

**Q.** And the MIC (Bacillus subtilis 6633; Bacillus subtilis 6633, nutrient agar 5% chocolated horse blood, 18 hours 37° C., read-out: MIC)?
**A.** The MIC was 1 µg/mL (≈ 2.16 µM).

**Q.** What about the MIC (K. aerogenes A; K. aerogenes A, nutrient agar 5% chocolated horse blood, 18 hours 37° C., read-out: MIC) of the same molecule?
**A.** The MIC was over 100 µg/mL.

**Q.** What about the MIC ([5]; Pasteurella multocida 1633, nutrient agar 5% chocolated horse blood, 18 hours 37° C., read-out: MIC) of the same molecule?
**A.** Its MIC is 25 µg/mL (≈ 53.9 µM).

**Q.** What about the MIC (Staph. aureus Russell; Staph. aureus Russell, nutrient agar 5% chocolated horse blood, 18 hours 37° C., read-out: MIC) of the same molecule?
**A.** Its MIC is 2.5 µg/mL (≈ 5.39 µM).

**Q.** What about the MIC [6] of the same molecule?
**A.** Its MIC is 0.25 µg/mL (≈ 0.539 µM).

**Q.** And the MIC (M. hyorhinis ATCC 25021)?
**A.** Its MIC is 0.25 µg/mL (≈ 0.539 µM).

**Q.** What about the MIC (M. suipneumoniae LABER) of the same molecule?
**A.** Its MIC is 0.1 µg/mL (≈ 0.216 µM).

**Q.** What about the MIC (M. suipneumoniae TAM 6N) of the same molecule?
**A.** The MIC was 0.25 µg/mL (≈ 0.539 µM).

**Q.** And the MIC [7]?
**A.** Its MIC is 0.25 µg/mL (≈ 0.539 µM).

**Q.** And the MIC ([8]; NCTC8163, Erysipelothrix rhusiopathiae NCTC 8163, DST Agar, 10^4 organisms, 18 hours 37° C., read-out: MIC)?
**A.** Its MIC is over 80 µg/mL.

**Q.** And the MIC (Past. multocida PA1; Past. multocida PA1, DST Agar, 10^4 organisms, 18 hours 37° C., read-out: MIC)?
**A.** Its MIC is 10 µg/mL (≈ 21.6 µM).

**Q.** And the MIC (Past. multocida PA2; Past. multocida PA2, DST Agar, 10^4 organisms, 18 hours 37° C., read-out: MIC)?
**A.** Its MIC is 2.5 µg/mL (≈ 5.39 µM).

**Q.** What about the MIC (Strep. uberis SPO1; Strep. uberis SPO1, DST Agar, 10^4 organisms, 18 hours 37° C., read-out: MIC) of the same molecule?
**A.** Its MIC is 0.625 µg/mL (≈ 1.35 µM).

**Q.** And the MIC ([9]; Strep. suis (group D) SPS11, DST Agar, 10^4 organisms, 18 hours 37° C., read-out: MIC)?
**A.** The MIC was 80 µg/mL (≈ 173 µM).

**Q.** How did the MIC (M. gallisepticum S6) turn out when `C/C(=C\C(=O)OCc1cc([N+](=O)[O-])cc([N+](=O)[O-])c1)CC1OCC(CC2OC2C(C)C(C)O)C(O)C1O` (stereo not drawn) [Example 6, 3,5-dinitrobenzyl monate A] was run?
**A.** The MIC was 5 µg/mL (≈ 9.53 µM).

**Q.** And the MIC (M. suipneumoniae MS 16)?
**A.** The MIC was 0.025 µg/mL (≈ 0.0477 µM).

**Q.** What about the MIC (M. suipneumoniae NB12) of the same molecule?
**A.** The MIC was 0.05 µg/mL (≈ 0.0953 µM).

**Q.** And the MIC (P. mirabilis 889; Proteus mirabilis, 889, 18 h)?
**A.** The MIC was 100 µg/mL (≈ 191 µM).

**Q.** And the MIC (Staph. aureus Oxford; 18 h)?
**A.** Its MIC is 0.5 µg/mL (≈ 0.953 µM).

**Q.** What about the MIC (Strep. faecalis 1; Enterococcus faecalis, 1, 18 h) of the same molecule?
**A.** The MIC was over 100 µg/mL.

**Q.** And the MIC ([1]; R80/421A, 18 h)?
**A.** The MIC was 0.25 µg/mL (≈ 0.477 µM).

**Q.** What about the MIC ([2]; NCTC10662, 18 h) of the same molecule?
**A.** Its MIC is over 100 µg/mL.

**Q.** What about the MIC (Sarcina lutea 8340; Micrococcus luteus, 8340, 18 h) of the same molecule?
**A.** The MIC was over 100 µg/mL.

**Q.** And the MIC ([3]; Corynebacterium xerosis, 9755, 18 h)?
**A.** The MIC was over 100 µg/mL.

**Q.** And the MIC (Staph. aureus W2827)?
**A.** The MIC was 1 µg/mL (≈ 1.91 µM).

**Q.** And the MIC ([4]; Haemophilus influenzae, Q1, 18 h)?
**A.** Its MIC is 0.5 µg/mL (≈ 0.953 µM).

**Q.** And the MIC (E. Coli NCTC 10418; NCTC10418, 18 h)?
**A.** Its MIC is 100 µg/mL (≈ 191 µM).

**Q.** And the MIC (Bacillus subtilis 6633; Bacillus subtilis, 6633, 18 h)?
**A.** Its MIC is 0.5 µg/mL (≈ 0.953 µM).

**Q.** And the MIC (K. aerogenes A; 18 h)?
**A.** The MIC was 100 µg/mL (≈ 191 µM).

**Q.** And the MIC ([5]; Pasteurella multocida, 1633, 18 h)?
**A.** Its MIC is 0.5 µg/mL (≈ 0.953 µM).

**Q.** What about the MIC (Staph. aureus Russell; 18 h) of the same molecule?
**A.** Its MIC is 1 µg/mL (≈ 1.91 µM).

**Q.** What about the MIC [6] of the same molecule?
**A.** The MIC was 0.025 µg/mL (≈ 0.0477 µM).

**Q.** What about the MIC (M. hyorhinis ATCC 25021) of the same molecule?
**A.** Its MIC is 0.025 µg/mL (≈ 0.0477 µM).

**Q.** And the MIC (M. suipneumoniae LABER)?
**A.** The MIC was 0.025 µg/mL (≈ 0.0477 µM).

**Q.** And the MIC (M. suipneumoniae TAM 6N)?
**A.** The MIC was 0.05 µg/mL (≈ 0.0953 µM).

**Q.** And the MIC [7]?
**A.** The MIC was 0.05 µg/mL (≈ 0.0953 µM).

**Q.** And the MIC ([8]; Erysipelothrix rhusiopathiae, NCTC8163, 18 h)?
**A.** The MIC was 20 µg/mL (≈ 38.1 µM).

**Q.** And the MIC (Past. multocida PA1; PA1, 18 h)?
**A.** Its MIC is 1.25 µg/mL (≈ 2.38 µM).

**Q.** And the MIC (Past. multocida PA2; PA2, 18 h)?
**A.** The MIC was 0.625 µg/mL (≈ 1.19 µM).

**Q.** What about the MIC (Strep. uberis SPO1; SPO1, 18 h) of the same molecule?
**A.** Its MIC is 0.07 µg/mL (≈ 0.133 µM).

**Q.** What about the MIC ([9]; 18 h) of the same molecule?
**A.** The MIC was 20 µg/mL (≈ 38.1 µM).
